Data taken from patent publication US20230091848A1, “DISEASE DETECTION AND TREATMENT BASED ON PHENYLACETYL GLUTAMINE LEVELS” (The Cleveland Clinic Foundation, priority 2020, published 2023).

Key:
[1] = system: FeCl3-induced carotid artery injury model; test: Carotid artery FeCl3 injury thrombosis assay; format: in vivo, mice; settings: i.p. injection 50 mg/kg; vs phenylalanine or saline
Procedure: Briefly, rhodamine 6G (100 μL; 0.5 mg/mL) was injected directly into the right jugular vein to label platelets. The left carotid artery was exposed and injured by placing a FeCl3-soaked filter paper for 1 minute. […] Time to cessation of blood flow through clot formation for all studies was determined by visual inspection by two different investigators. End points were set as cessation of blood flow for 30 seconds to 30 minutes.

washed human platelets = test: Intracellular Ca2+ in Fura 2 loaded washed platelets; format: cell-based; settings: sub-maximal (0.02 U) thrombin
Procedure: To prepare washed platelets for intracellular Ca^2+ measurements, 100 nM prostaglandin E1 (PGE-1) was added to PRP and the PRP was then centrifuged at 500×g for 20 min at 22° C. […] For ratiometric fluorescence measurements, washed platelets were incubated with Fura 2-AM (1 μM) at 22° C. for 30 min. Excess Fura 2-AM was removed by centrifugation at 500×g for 30 min.

[2] = system: human platelet rich plasma (PRP); test: Platelet aggregometry in platelet rich plasma; format: cell-based; settings: submaximal ADP
Procedure: ADP (up to 4 μM), TRAP6 (up to 10 μM) and collagen (up to 1.0 μg/mL) were used as indicated to initiate aggregation with constant stirring (600 rpm).

O=C(O)CNC(=O)Cc1ccccc1 [PAGly, phenylacetylglycine]
platelet thrombus formation within the injured carotid artery [1]: induced heightened platelet thrombus formation within the injured carotid artery | time to cessation of flow (occlusion time) [1]: reduced the time to cessation of flow following injury | thrombin-evoked augmentation of [Ca2+]i (washed human platelets): provoked further rise in [Ca^2+]i in response to sub-maximal thrombin exposure | ADP-stimulated platelet aggregation response [2]: augmented stimulus (ADP) dependent platelet aggregation response
